Values joined by “and” are separate entries in the source; they are usually repeats but may differ in a detail not shown here. Identical values can stand only once. Like-named read-outs stand apart in the source and are kept apart here.
Experiments:
[1] = system: P. falciparum Dd2 Cytb A122D; test: SYBR Green ABS proliferation assay, NCGC00473217 selected clone F12; format: cell-based, Plasmodium falciparum; details: Plasmodium falciparum, DD2, cytochrome b mutant line, fourth value triple, c12; […]; read-out: log AC50, mean (converted)
Experimental: (§1) As resistance selection studies implicated the parasite cytochrome bc1 complex in mediating reduced parasite susceptibility to both NCGC00473217 and NCGC00374598, we leveraged these drug-selected parasites to test for altered drug response to a panel of antimalarial compounds.
(§2) The P. falciparum parasite Dd2 line was cultured in vitro using standard conditions. […] Tissue culture flasks and assay plates were incubated at 37 °C under a gas mixture of 5% CO2, 5% O2 and 90% N2. […] Significant differences were assessed using two-sided Student’s t-tests. All HTS assays were stopped and read at 72 h. Percent response values represent relative growth as judged by SYBR Green-I fluorescence intensity values normalized to controls.
(§3) Fresh uninfected RBCs (0.5% hematocrit) were added on day 7 and media was changed every other day. […] Resistant parasites were maintained under drug media at a volume of 50 mL until a high parasitemia (> 5%) was achieved. Aliquots of the bulk resistant cultures were frozen in cryovials before cloning by limiting dilution in 96-well plates (seeded at 0.25 or 0.5 parasites/well)[70]. After 3 weeks of cloning, we screened for positive wells by flow cytometry with SYBR Green-stained cells. […] Parasites were harvested by saponin lysis at the trophozoite stage and genomic DNA was extracted using the QIAamp DNA Blood Midi Kit (Qiagen, Germantown, MD)[71].

[2] = system: P. falciparum Dd2 Cytb G131S; test: SYBR Green ABS proliferation assay, NCGC00374598 selected clone C11; format: cell-based, Plasmodium falciparum; details: Plasmodium falciparum, DD2, cytochrome b mutant line, second value triple, c6; […]; read-out: log AC50, mean (converted)
Experimental: as §1, §2, §3; call rule not given here

[3] = system: Plasmodium falciparum Dd2 asexual blood stage parasites; test: microbe, parasite or virus in culture; set-up: species or system Plasmodium falciparum Dd2 in human erythrocytes; single determination (one 11-point concentration-response curve); details: Plasmodium falciparum, DD2, Erythrocyte, 72 h; read-out: AC50
in vitro [4] = details: human, HepG2-A16-CD81EGFP cells, uninfected
in vitro [5] = details: human, hepg2 cells
[6] = system: P. berghei-ANKA-GFP-LucCON liver stage parasites in HepG2-A16-CD81EGFP cells; test: P. berghei liver stage Pb-Luc assay, Method 1 (UCSD, 1536-well); format: cell-based, Plasmodium berghei; details: for activity at 1 µM / activity at 3 µM: 48 h; for Max Resp (signal direction of the dose response): Decrease = decreasing P. berghei viability with dose, Increase = increasing signal, Inactive = no dose response
[7] = system: luciferase-expressing P. berghei liver stage parasites in HepG2 cells; test: Inhibition of liver-stage development assay (ILSDA), Method 2 (WRAIR, 96-well); format: cell-based, Plasmodium berghei; details: for AC50: Plasmodium berghei, HepG2, Method 2
HepG2 = details: human, hepg2 cells, 48 h
HepG2-A16-CD81EGFP cells = details: for HepG2 viability signal, 1 uM, repeat 2: nominal 1 uM (10 mM stock), […] for 15 mM, 1.2 uM for 12 mM, 2 uM for 20 mM stock; for HepG2 viability signal, 1 uM, repeat 2 / HepG2 viability signal, 3 uM, repeat 2: average of 2 wells; for HepG2 viability signal, 3 uM, repeat 2: nominal 3 uM (10 mM stock), 4.5 uM for 15 mM, 3.6 uM for 12 mM, 6 uM for 20 mM stock
[8] = system: T1, Plasmodium falciparum Dd2-attB-ScDHODH (transgenic line expressing yeast DHODH), asexual blood stages; test: organism not typed; set-up: replicate k of 3 (each line is one of three independent assays; the three lines of one compound and parasite line follow each other); details: 72 h, n = 1
T1 construct: Dd2-attB-ScDHODH, the transgenic line that expresses yeast DHODH
Summary of the method: (§4)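 Three independent runs, compound subset only; parental vs ScDHODH line compared by two-sided Student's t-test.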

[9] = system: T2, Plasmodium falciparum Dd2-attB (parental line), asexual blood stages; test: microbe, parasite or virus in culture; set-up: replicate k of 3 (each line is one of three independent assays; the three lines of one compound and parasite line follow each other); details: n = 1
T2 construct: Dd2-attB, the isogenic parental line
Summary of the method: as §4

[10] = Plasmodium berghei, 1 uM (compounds provided at 10 mM), average of 2 wells on a 1536 well plate, column 11, read-out: Pb-Luc (P. berghei liver stage), % of control, lower concentration, first repeat
[11] = Plasmodium berghei, 1 uM (compounds provided at 10 mM), average of 2 wells on a 1536 well plate, column 12, read-out: Pb-Luc (P. berghei liver stage), % of control, lower concentration, second repeat
[12] = Plasmodium berghei, 3 uM (compounds provided at 10 mM), average of 2 wells on a 1536 well plate, column 8, read-out: Pb-Luc (P. berghei liver stage), % of control, higher concentration, first repeat
[13] = Plasmodium berghei, 3 uM (compounds provided at 10 mM), average of 2 wells on a 1536 well plate, column 9, read-out: Pb-Luc (P. berghei liver stage), % of control, higher concentration, second repeat
[14] = Method 2, Decrease = decreasing P. berghei viability with dose, Increase = increasing signal, Inactive = no dose response
[15] = Hill fit, 50% of maximum activity response, read-out: AC50
[16] = log10 of molar AC50 from Hill fit, read-out: Log AC50 (converted)
[17] = Method 1, log10 of molar AC50 from Hill fit
[18] = Plasmodium berghei, nominal 1 uM (10 mM stock), […] for 15 mM, 1.2 uM for 12 mM, 2 uM for 20 mM stock, average of 2 wells, 1536-well plate, repeat 1, read-out: Pb-Luc signal, 1 uM, repeat 1
[19] = Plasmodium berghei, nominal 1 uM (10 mM stock), […] for 15 mM, 1.2 uM for 12 mM, 2 uM for 20 mM stock, average of 2 wells, 1536-well plate, repeat 2, read-out: Pb-Luc signal, 1 uM, repeat 2
[20] = Plasmodium berghei, nominal 1 uM (10 mM stock), […] for 15 mM, 1.2 uM for 12 mM, 2 uM for 20 mM stock, average of 2 wells, 1536-well plate, repeat 3, read-out: Pb-Luc signal, 1 uM, repeat 3
[21] = Plasmodium berghei, nominal 3 uM (10 mM stock), 4.5 uM for 15 mM, 3.6 uM for 12 mM, 6 uM for 20 mM stock, average of 2 wells, 1536-well plate, repeat 1, read-out: Pb-Luc signal, 3 uM, repeat 1
[22] = Plasmodium berghei, nominal 3 uM (10 mM stock), 4.5 uM for 15 mM, 3.6 uM for 12 mM, 6 uM for 20 mM stock, average of 2 wells, 1536-well plate, repeat 2, read-out: Pb-Luc signal, 3 uM, repeat 2
[23] = Plasmodium berghei, nominal 3 uM (10 mM stock), 4.5 uM for 15 mM, 3.6 uM for 12 mM, 6 uM for 20 mM stock, average of 2 wells, 1536-well plate, repeat 3, read-out: Pb-Luc signal, 3 uM, repeat 3
[24] = Plasmodium berghei, Method 1, log10 of molar AC50 from Hill fit, read-out: Log AC50 (converted)

Compound	AC50 [3] [nM]	viability at 48 h, 1 µM (in vitro [4]) [%]	viability at 48 h, 3 µM (in vitro [4]) [%]	CC50 at 48 h (in vitro [5]) [nM]	Max Resp (signal direction of the dose response) [7, 14]	AC50 [7, 15] [nM]	AC50 [7, 16] [nM]	Log AC50 (M) (HepG2)	also measured
CC(C)CC1=N[S+](=O)([O-])c2cc(NC(=O)c3ccc(F)s3)ccc2N1C [NCGC00651708-01]	–	–	–	–	–	–	–	–	AC50 [1]: 2110 nM; AC50 [2]: 2990 nM
CCO.Nc1nc(N)c2cc(Sc3ccc4ccccc4c3)ccc2n1 [MLS000757047-01]	1330	103	93	27300	Decrease	2240	2240	-4.5643	activity at 1 µM [6, 10]: 12%; activity at 1 µM [6, 11]: 12%; activity at 3 µM [6, 12]: 11%; activity at 3 µM [6, 13]: 10%; HepG2 viability, % of control, higher concentration, second repeat (HepG2-A16-CD81EGFP cells): 96%; HepG2 viability, % of control, lower concentration, second repeat (HepG2-A16-CD81EGFP cells): 99%
O=C1c2ccccc2C2=Nc3ccccc3SC(c3ccc(Cl)cc3)C12 (stereo not shown) [MLS000566883-01]	2660	90	85	43200	Decrease	3980	3980	-4.3643	–
COc1ccccc1Nc1cnc2ccc(-c3ccc(OC)c(OC)c3)nn12 [NCGC00412573-01]	1530	108	73.1	44400	–	–	–	-4.3528	Max Resp (signal direction of the dose response) ([6]; Method 1): Decrease; AC50 ([6]; Method 1, Hill fit, 50% of maximum activity response, read-out: AC50): 447 nM; Log AC50 (M) [6, 17]: -6.350 M; activity at 1 µM [6, 18]: 7.11%; activity at 1 µM [6, 19]: 51.2%; activity at 1 µM [6, 20]: 2.63%; activity at 3 µM [6, 21]: 1.18%; activity at 3 µM [6, 22]: 32.2%; activity at 3 µM [6, 23]: 43.3%; AC50 ([6]; Plasmodium berghei, Method 1, Hill fit, 50% of maximum activity response, read-out: AC50): 355 nM; AC50 [6, 24]: 355 nM; Activity direction (Decrease / Inactive) ([7]; P. berghei liver stage, Method 2, dose response): Inactive; HepG2 viability signal, 1 uM, repeat 2 (HepG2-A16-CD81EGFP cells): 106.68%; HepG2 viability signal, 3 uM, repeat 2 (HepG2-A16-CD81EGFP cells): 92.36%
Cc1cccc(Nc2nc(NCc3ccco3)c3ccccc3n2)c1 [MLS000662793-01]	4730	89	74	43200	Inactive	–	–	-4.3643	activity at 1 µM [6, 10]: 23%; activity at 1 µM [6, 11]: 19%; activity at 3 µM [6, 12]: 13%; activity at 3 µM [6, 13]: 11%
c1ccc(Nc2nc(NCc3ccco3)c3ccccc3n2)cc1 [MLS000767881-01]	1680	94	80	43200	Decrease	2240	2240	-4.3643	–
Oc1cc(NCc2ccccc2)cc2cccnc12 [NCGC00183793-01]	2990	91	52	43200	–	–	–	-4.3643	Individual replicates / Log AC50 (M) [8]: -5.2486 Log AC50 (M); AC50 ([8]; read-out: Individual replicates / Log AC50 (converted)): 4480 nM; Individual replicates / Log AC50 (M) ([9]; 72 h): -5.3986 Log AC50 (M) and -5.2986 Log AC50 (M); AC50 ([9]; Plasmodium falciparum, DD2, 72 h, read-out: Individual replicates / Log AC50 (M) (converted)): 3.56e-06 M
COc1ccc(CCN2CCC(Nc3nc4ccccc4n3Cc3ccc(F)cc3)CC2)cc1 [NCGC00016913-08]	2370	–	–	34300	–	–	–	-4.4643	AC50 [6]: 3160 nM; Max Resp (signal direction of the dose response) ([6]; Method 1): Decrease; Log AC50 (M) [6, 17]: -5.500 M; AC50 [6, 24]: 2820 nM; Max Resp (signal direction of the dose response) [7]: Inactive
COc1ccc(CN2CCCn3nc(C)c(-c4ccccc4Oc4ccccc4)c32)cc1O [NCGC00420291-01]	9440	101	105	43200	–	–	–	-4.3643	activity at 1 µM [6, 18]: 77.1%; activity at 1 µM [6, 19]: 79.5%; activity at 1 µM [6, 20]: 133%; activity at 3 µM [6, 21]: 83.6%; activity at 3 µM [6, 22]: 59.5%; activity at 3 µM [6, 23]: 87.2%; HepG2 viability signal, 1 uM, repeat 2 (HepG2-A16-CD81EGFP cells): 99.76%; HepG2 viability signal, 3 uM, repeat 2 (HepG2-A16-CD81EGFP cells): 103.00%

Reference: article PMC7822874, “Chemoprotective antimalarials identified through quantitative high-throughput screening of Plasmodium blood and liver stage parasites” (Scientific Reports, 2021)
